# Assay results reported in US8088820B2, “Substituted tetracycline compounds for the treatment of malaria” (Paratek Pharmaceuticals, Inc., priority 2001, dated 2012).
# Experiment: in vitro
# Settings: African green monkey (COS-1); Chinese hamster (CHO)
row,IC50 at 24 h [µg/mL],Structure (SMILES)
1,> 25,C[C@H]1c2cccc(O)c2C(=O)C2=C(O)[C@]3(O)C(=O)C(C(N)=O)=C(O)[C@@H](N(C)C)[C@@H]3[C@@H](O)[C@@H]21 [doxycycline]
2,> 25,CN(C)c1ccc(O)c2c1C[C@H]1C[C@H]3[C@H](N(C)C)C(O)=C(C(N)=O)C(=O)[C@@]3(O)C(O)=C1C2=O [minocycline]
